Source: PubChem BioAssay (NCI)
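Abbreviation: GI50, concentration required for 50% inhibition of growth. The concentration for full growth arrest is given as TGI.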

Key:
Experiment in all cases: NCI tumour cell line growth inhibition, 384-well format
UACC-257 melanoma = system: UACC-257 melanoma
UACC-62 melanoma = system: UACC-62 melanoma
HT29 colon = system: HT29 colon
HCT-116 colon = system: HCT-116 colon
SK-MEL-28 melanoma = system: SK-MEL-28 melanoma
NCI/ADR-RES ovarian = system: NCI/ADR-RES ovarian
MOLT-4 leukemia = system: MOLT-4 leukemia
UO-31 renal = system: UO-31 renal
OVCAR-5 ovarian = system: OVCAR-5 ovarian
HL-60(TB) leukemia = system: HL-60(TB) leukemia
ACHN renal = system: ACHN renal
SW-620 colon = system: SW-620 colon
HS 578T breast = system: HS 578T breast
SR leukemia = system: SR leukemia
TK-10 renal = system: TK-10 renal
U251 glioblastoma = system: U251 glioblastoma
OVCAR-4 ovarian = system: OVCAR-4 ovarian
BT-549 breast = system: BT-549 breast
MDA-MB-468 breast = system: MDA-MB-468 breast
CAKI-1 renal = system: CAKI-1 renal
PC-3 prostate = system: PC-3 prostate
MDA-MB-231 breast = system: MDA-MB-231 breast
HCC-2998 colon = system: HCC-2998 colon
M14 melanoma = system: M14 melanoma
CCRF-CEM leukemia = system: CCRF-CEM leukemia
NCI-H226 lung = system: NCI-H226 lung
COLO 205 colon = system: COLO 205 colon
NCI-H23 lung = system: NCI-H23 lung
NCI-H322M lung = system: NCI-H322M lung
SK-MEL-2 melanoma = system: SK-MEL-2 melanoma
RPMI-8226 leukemia = system: RPMI-8226 leukemia
SF-268 CNS = system: SF-268 CNS
HOP-92 NSCLC = system: HOP-92 NSCLC
NCI-H522 lung = system: NCI-H522 lung
786-0 renal = system: 786-0 renal
A498 renal = system: A498 renal
T-47D breast = system: T-47D breast
IGROV1 ovarian = system: IGROV1 ovarian
SNB-75 CNS = system: SNB-75 CNS
RXF 393 renal = system: RXF 393 renal
SF-539 CNS = system: SF-539 CNS
OVCAR-3 ovarian = system: OVCAR-3 ovarian
SK-OV-3 ovarian = system: SK-OV-3 ovarian
MCF7 breast = system: MCF7 breast
EKVX NSCLC = system: EKVX NSCLC
NCI-H460 NSCLC = system: NCI-H460 NSCLC
OVCAR-8 ovarian = system: OVCAR-8 ovarian

N#Cc1cnc(Nc2cc(NC[C@H]3CNCCO3)c(C(F)(F)F)cn2)cn1
GI50 (UACC-257 melanoma): 17.6 µM | TGI (UACC-257 melanoma): 31.8 µM | GI50 (UACC-62 melanoma): 7.66 µM | TGI (UACC-62 melanoma): 21 µM | GI50 (HT29 colon): 20.6 µM | TGI (HT29 colon): > 74.7 µM | GI50 (HCT-116 colon): 17.5 µM | TGI (HCT-116 colon): 47.5 µM | GI50 (SK-MEL-28 melanoma): 18.1 µM | TGI (SK-MEL-28 melanoma): 35.6 µM | GI50 (NCI/ADR-RES ovarian): 0.963 µM | TGI (NCI/ADR-RES ovarian): 2.91 µM | GI50 (MOLT-4 leukemia): 0.404 µM | TGI (MOLT-4 leukemia): 1.34 µM | GI50 (UO-31 renal): 0.588 µM | TGI (UO-31 renal): > 100 µM | GI50 (OVCAR-5 ovarian): 17.1 µM | TGI (OVCAR-5 ovarian): 43.9 µM | GI50 (HL-60(TB) leukemia): 0.625 µM | TGI (HL-60(TB) leukemia): 1.76 µM | GI50 (ACHN renal): 0.305 µM | TGI (ACHN renal): 1.22 µM | GI50 (SW-620 colon): 16.8 µM | TGI (SW-620 colon): 39.4 µM | GI50 (HS 578T breast): 0.337 µM | TGI (HS 578T breast): 2.22 µM | GI50 (SR leukemia): 0.0572 µM | TGI (SR leukemia): 0.186 µM | GI50 (TK-10 renal): 1.14 µM | TGI (TK-10 renal): 10.2 µM | GI50 (U251 glioblastoma): 17.4 µM | TGI (U251 glioblastoma): 39.7 µM | GI50 (OVCAR-4 ovarian): 1.86 µM | TGI (OVCAR-4 ovarian): 34.4 µM | GI50 (BT-549 breast): 0.377 µM | TGI (BT-549 breast): 1.71 µM | GI50 (MDA-MB-468 breast): 13.9 µM | TGI (MDA-MB-468 breast): 27.2 µM | GI50 (CAKI-1 renal): 12.2 µM | TGI (CAKI-1 renal): 53.8 µM | GI50 (PC-3 prostate): 16.4 µM | TGI (PC-3 prostate): 40.3 µM | GI50 (MDA-MB-231 breast): 16.8 µM | TGI (MDA-MB-231 breast): 42.3 µM | GI50 (HCC-2998 colon): 0.402 µM | TGI (HCC-2998 colon): 3.09 µM | GI50 (M14 melanoma): 0.292 µM | TGI (M14 melanoma): 0.785 µM | GI50 (CCRF-CEM leukemia): 0.333 µM | TGI (CCRF-CEM leukemia): 0.976 µM | GI50 (NCI-H226 lung): 20.1 µM | TGI (NCI-H226 lung): 54.1 µM | GI50 (COLO 205 colon): 15.3 µM | TGI (COLO 205 colon): 34.4 µM | GI50 (NCI-H23 lung): 0.508 µM | TGI (NCI-H23 lung): 12.3 µM | GI50 (NCI-H322M lung): 9.8 µM | TGI (NCI-H322M lung): 32.4 µM | GI50 (SK-MEL-2 melanoma): 10.8 µM | TGI (SK-MEL-2 melanoma): 22.7 µM | GI50 (RPMI-8226 leukemia): 1.21 µM | TGI (RPMI-8226 leukemia): 5.28 µM | GI50 (SF-268 CNS): 14.4 µM | TGI (SF-268 CNS): 30.1 µM | GI50 (HOP-92 NSCLC): 0.504 µM | TGI (HOP-92 NSCLC): 9.53 µM | GI50 (NCI-H522 lung): 13.6 µM | TGI (NCI-H522 lung): 26.9 µM | GI50 (786-0 renal): 1.59 µM | TGI (786-0 renal): 15.2 µM | GI50 (A498 renal): 0.234 µM | TGI (A498 renal): 0.531 µM | GI50 (T-47D breast): 25.4 µM | TGI (T-47D breast): 51.3 µM | GI50 (IGROV1 ovarian): 9.13 µM | TGI (IGROV1 ovarian): 47.6 µM | GI50 (SNB-75 CNS): 14.7 µM | TGI (SNB-75 CNS): 27.9 µM | GI50 (RXF 393 renal): 0.272 µM | TGI (RXF 393 renal): 0.715 µM | GI50 (SF-539 CNS): 0.38 µM | TGI (SF-539 CNS): 1.18 µM | GI50 (OVCAR-3 ovarian): 9.42 µM | TGI (OVCAR-3 ovarian): 25.4 µM | GI50 (SK-OV-3 ovarian): 2.33 µM | TGI (SK-OV-3 ovarian): 11 µM | GI50 (MCF7 breast): 0.728 µM | TGI (MCF7 breast): 20.7 µM | GI50 (EKVX NSCLC): 14.5 µM | TGI (EKVX NSCLC): 34 µM | GI50 (NCI-H460 NSCLC): 8.14 µM | TGI (NCI-H460 NSCLC): 21 µM | GI50 (OVCAR-8 ovarian): 1.66 µM | TGI (OVCAR-8 ovarian): 22.2 µM
